Experiments:
Type in all cases: physicochemical
[1] = Dielectric constant of glycols and derivatives; settings: for Dielectric Constant, 23° C.: neat glycol/derivative
Text: Determining the polarity of a mixture or an emulsion can be performed in various ways. For example, determining a polarity can include measuring a property that is a function of polarity, such as a dielectric constant. Measurement of a dielectric constant of a liquid can be performed by various sensors, such as immersion probes, flow-through probes, and cup-type probes, attached to various meters, such as those available from the Brookhaven Instruments Corporation of Holtsville, N.Y. (e.g., model BI-870) and the Scientifica Company of Princeton, N.J. (e.g. models 850 and 870). For consistency of comparison, preferably all measurements for a particular filter system are performed at substantially the same sample temperature, e.g., by use of a water bath. Generally, the measured dielectric constant of a substance will increase at lower temperatures and decrease at higher temperatures.
Dielectric Constants of the following glycols and their derivatives have been measured (see Table 1).

[2] = Photostability on VITRO-SKIN: retained absorbance and critical wavelength before and after irradiation
Protocol: Referring to Table 7 above, the compositions were applied on Vitro-Skin (0.6 mg/cm2) and irradiated. The irradiation dose was 5 MEDs repeated 4 times (=20 MEDs total). Retained Absorbance at 370 nm (UVA photostability, FIG. 1), 310 nm (UVB photostability, FIG. 2) and critical wavelength (Table 8, FIG. 3) were determined for each composition before and after each irradiation dose in order to determine their photostability.
The resulting sunscreen oil phases were tested for photostability by measuring absorbance on a Labsphere UV-1000S Ultraviolet Transmittance Analyzer before and after irradiation with a Solar Light Company model 16S solar simulator (equipped with a WG 320 filter to transmit radiation greater than 290 nm) in 5 MED (105 mJ/cm^2) increments up to 20 MED cumulative dose. Output was monitored by a PMA 2105 UV-B DCS Detector (biologically weighted) and controlled by a PMA 2100 Automatic Dose Controller (Solar Light Co.).
A synthetic skin substrate was used for testing the sunscreen compositions (VITRO-SKIN substrate by IMS, Inc. of Milford, Conn.). To prepare the substrate, a 300 g solution of 44 g of glycerin and 256 g of deionized water was added to an IMS hydrating chamber, and a sheet of VITRO-SKIN was placed in the hydrating chamber for approx. 16 hours. Several 6.5 cm squares were cut from the hydrated VITRO-SKIN and used for absorbance measurements.
To prepare slides for testing, sunscreen composition is drawn or placed into a pipette. The test composition is uniformly applied to VITRO-SKIN square (0.6 mg/cm^2). This application dose of the oil phase, 0.6 mg/cm^2, corresponds to the application dose of 2 mg/cm^2 of sunscreen formulation (typically the concentration of the oil phase in the sunscreen formulation is about 30%). The VITRO-SKIN square was then placed on a foam block, and the test material was spread by finger (covered with a latex glove or finger cot), first in a circular motion, then by a side-to-side motion during which the VITRO-SKIN is deformed by the pressure. The square was then mounted in a slide holder and allowed to dry for about 15 to 20 minutes.
To test photostability, a slide was positioned on the UV transmittance analyzer using registration marks, and a scan of 1 sq. cm spot on the slide was performed. The slide was then transferred to a holder placed adjacent to the solar simulator and, using a calipers, was positioned such that the beam of UV radiation exiting the solar simulator illuminated the same 1 cm spot on the slide. The following software settings were used: UV-B—290-320 nm; UV-A—320-400 nm; SPF—290-400 nm; Spectral Irradiance; Noon, July 3, Albuquerque, N.Mex.; SPF Spectral Irradiance and Erythermal Effectiveness settings as set by manufacturer. Following an exposure of 5 MED, the slide was again placed in position on the UV transmittance analyzer, and a scan of the exposed spot was performed. The procedure was repeated on the same 1 cm spot on the slide until the desired total radiation dosage was achieved.
The above compositions were applied on Vitro-Skin (0.6 mg/cm2) and irradiated. The irradiation dose was 5 MEDs repeated 4 times (=20 MEDs total). Retained Absorbance at 370 nm (Table 11 and FIG. 4), 310 nm (Table 12) and critical wavelength (Table 13 and FIG. 5) were determined for each composition before and after each irradiation dose in order to determine their photostability. The methodology is described above in more detail in Example 3.

[3] = DOE (central composite design) photostability of model oil phases: retained absorbance after 15 MED; settings: response surface analysis of DOE 1-3
Protocol: In order to determine the impact of the concentration of avobenzone, from 0.04842 M to 0.0968 M (Factor 1) and different molar ratios of 1,2-octanediol (caprylyl glycol) to avobenzone, from 0 to 10 (Factor 2), on the photostability of avobenzone in the different sunscreen compositions, numerous studies were conducted. Three designs of experiments that represent central composite designs (CCDs) and D.O.E. Fusion 7.2.2 software were employed.
The CCD type of design was used to determine the effect of two factors: concentration of Avobenzone and the molar ratio 1,2-octanediol/avobenzone on the photostability of avobenzone in the different sunscreen compositions. Two responses were measured: the retained absorbance (%) of a sunscreen composition at 370 nm (UVA) and the same measurement at 310 nm (UVB) after irradiation dose of 15 MED.
The same order of experiments was run in the different set-ups. As a result, two categorical factors were added: Oxybenzone (absent or present at a predetermined constant level) and Octocrylene (absent or present at a predetermined constant level). Table 16 presents the three set-ups as well as the numbers of the formulation tables and response tables.
Response surface equalization were fitted to both responses (retained absorbance at 370 nm and retained absorbance at 310 nm, both after an irradiation dose of 15 MED). The significant factors were selected.

Compound	Dielectric Constant, 23° C. [1]	photostability of UVB sunscreens at 310 nm (in words) [2]	photostability of avobenzone at 370 nm (in words) [2]	effect on retained absorbance at 310 nm after 15 MED (in words) [3]	effect on retained absorbance at 370 nm after 15 MED (in words) [3]	also measured
CCCCC(O)CO (centres unmarked) [1,2-Hexanediol]	15.1	can improve the photostability of UVB sunscreens at 310 nm	without the significant improvement of the photostability of avobenzone at 370 nm			
CCCCCCC(O)CO (centres unmarked) [1,2-Octanediol]				significantly improves the photostability of sunscreens at 310 nm	significantly improves the photostability	Dielectric Constant ([1]; measured at 30° C., solid at room temperature (23 C.)): 10.61; photostabilization of avobenzone (in words) [2]: most effectively stabilizes avobenzone
CCC(=O)OCCCCO [Butylene Glycol Monopropionate]	11.72					
CCCCOCCOCCO [Diethylene Glycol Monobutyl Ether]	10.59					
CCOCCOCCO [Ethoxydiglycol, Diethylene glycol monoethyl ether]	13.69	can improve the photostability of UVB sunscreens at 310 nm	without the significant improvement of the photostability of avobenzone at 370 nm			
CCCCC(CC)COC(=O)C(C#N)=C(c1ccccc1)c1ccccc1 (centres unmarked) [Octocrylene, 2-ethylhexyl-2-cyano-3,3 diphenylacrylate]				gives mild a gain in absorbency	helps the absorbance retention 370 nm, but not as significant as in the case of oxybenzone	
COc1ccc(C(=O)c2ccccc2)c(O)c1 [Oxybenzone, oxybenzone]				helps retention at 310 nm	gives the highest boost in retain absorbance at 370 nm and 15 MED exposure	
CCCC(O)CO (centres unmarked) [Pentylene Glycol, 1,2-pentanediol]	18.2	can improve the photostability of UVB sunscreens at 310 nm	without the significant improvement of the photostability of avobenzone at 370 nm			
Polyethylene Glycol-7 Methyl Ether	13.1					
